Reference: patent US4737494A, “1,3-dithiole derivatives and pharmaceutical compositions” (priority 1984, dated 1988)

Legend:
Format in all cases: in vivo, mice (ddY, male)
[1] = Acute toxicity test (oral, mortality 1 week after administration); conditions: mouse, in vivo, mice, in olive oil
Description: (§1) A test compound was suspended in olive oil and administered orally to mice (ddY mice,.male., 23±2 g, n=5 or 6). The actute toxicity value (LD50) was determined from the mortality 1 week after the administration.

mice = test: as above
Description: as §1

[2] = system: acute liver injury induced by carbon tetrachloride; test: Protective effect on acute liver injury induced by carbon tetrachloride (mice, oral): plasma GPT activity and BSP retention; conditions: 6 h before CCl4 (0.05 ml/kg p.o.); for GPT activity: plasma; for Retained BSP: plasma 30 min after BSP 75 mg/kg i.v.
Description: 1. Protective Effect on Acute Liver Injury Induced by Carbon Tetrachloride
A test compound was dissolved or suspended in olive oil and administered orally to mice (ddY mice, .male., 23±2 g, n=5). After 6 hours, carbon tetrachloride (0.05 ml/kg) was administered orally. 24 Hours after the administration of carbon tetrachloride, BSP (sodium sulfobromophthalein; 75 mg/kg) was administered intravenously. Thirty minutes later, the cardiac blood was collected, and GPT (glutamic-pyruvic transaminase) activity and the retention rate of BSP in the plasma were measured.

Compound | LD50 at 168 h [1] | acute toxicity (in words) (mice) | GPT activity ([2]; 1 mg/kg) | Retained BSP ([2]; 1 mg/kg) | GPT activity ([2]; 5 mg/kg) | Retained BSP ([2]; 5 mg/kg)
CCOC(=O)C[N+](C)=c1sccs1.[Cl-] [Compound No. 2, N-(1,3-dithiol-2-ylidene)-N-methyl-N-ethoxycarbonylmethylammonium chloride] | ≥ 1500 mg/kg | extremely low toxicity | 3190 ± 412 Karmen units | 57.4 ± 12.3 µg/mL | 192 ± 84 Karmen units | 17.1 ± 1.4 µg/mL
CN1CC[N+](=c2sccs2)CC1.[O-][Cl+3]([O-])([O-])[O-] [Compound No. 31, 1-(1,3-dithiol-2-ylidene)-4-methylpiperazinium perchlorate] | ≥ 1500 mg/kg | extremely low toxicity | 523 ± 111 Karmen units | 20.3 ± 3.4 µg/mL | 148 ± 51 Karmen units | 12.6 ± 0.6 µg/mL
CCOC(=O)C1CCC[N+]1=c1sccs1.[O-][Cl+3]([O-])([O-])[O-] (stereo not drawn) [Compound No. 41, 1-(1,3-dithiol-2-ylidene)-2-ethoxycarbonyl pyrrolidinium perchlorate] | ≥ 1500 mg/kg | extremely low toxicity | 405 ± 73 Karmen units | 26.5 ± 3.1 µg/mL | 165 ± 21 Karmen units | 17.9 ± 2.0 µg/mL
CC1CC[N+](=c2sccs2)CC1.[O-][Cl+3]([O-])([O-])[O-] (stereo not drawn) [Compound No. 53, 1-(1,3-dithiol-2-ylidene)-4-methylpiperidinium perchlorate] | – | – | 1843 ± 162 Karmen units | 70.0 ± 19.3 µg/mL | 193 ± 81 Karmen units | 16.9 ± 3.1 µg/mL
CCOC(=O)C1CCC[N+](=c2sccs2)C1.[I-] (stereo not drawn) [Compound No. 55, 1-(1,3-dithiol-2-ylidene)-3-ethoxycarbonylpiperidinium iodide] | ≥ 1500 mg/kg | extremely low toxicity | 2981 ± 169 Karmen units | 83.9 ± 14.1 µg/mL | 361 ± 49 Karmen units | 18.3 ± 4.4 µg/mL
CCOC(=O)C1CC[N+](=c2sccs2)CC1.[O-][Cl+3]([O-])([O-])[O-] (stereo not drawn) [Compound No. 56, 1-(1,3-dithiol-2-ylidene)-4-ethoxycarbonylpiperidinium perchlorate] | ≥ 1500 mg/kg | extremely low toxicity | 2713 ± 147 Karmen units | 76.6 ± 13.1 µg/mL | 216 ± 32 Karmen units | 21.0 ± 13.4 µg/mL
O=C(O)C1CC[N+](=c2sccs2)CC1.[O-][Cl+3]([O-])([O-])[O-] (stereo not drawn) [Compound No. 57, 1-(1,3-dithiol-2-ylidene)-4-carboxypiperidinium perchlorate] | – | – | 3735 ± 374 Karmen units | 101.1 ± 20.0 µg/mL | 2922 ± 247 Karmen units | 90.1 ± 14.7 µg/mL
NC(=O)C1CC[N+](=c2sccs2)CC1.[I-] (stereo not drawn) [Compound No. 58, 1-(1,3-dithiol-2-ylidene)-4-carbamoylpiperidinium iodide] | – | – | 3266 ± 245 Karmen units | 98.1 ± 21.0 µg/mL | 1151 ± 181 Karmen units | 41.5 ± 7.1 µg/mL
N#CC1CC[N+](=c2sccs2)CC1.[O-][Cl+3]([O-])([O-])[O-] (stereo not drawn) [Compound No. 59, 1-(1,3-dithiol-2-ylidene)-4-cyanopiperidinium perchlorate] | – | – | 2991 ± 382 Karmen units | 110.1 ± 27.3 µg/mL | 763 ± 118 Karmen units | 49.1 ± 8.1 µg/mL
OC1CC[N+](=c2sccs2)CC1.[O-][Cl+3]([O-])([O-])[O-] (stereo not drawn) [Compound No. 60, 1-(1,3-dithiol-2-ylidene)-4-hydroxypiperidinium perchlorate] | – | – | 1321 ± 197 Karmen units | 63.4 ± 10.9 µg/mL | 131 ± 10 Karmen units | 19.1 ± 2.1 µg/mL
CC1CC(C)C[N+](=c2sccs2)C1.[I-] (stereo not drawn) [Compound No. 67, 1-(1,3-dithiol-2-ylidene)-3,5-dimethylpiperidinium iodide] | – | – | 2718 ± 431 Karmen units | 111.4 ± 17.1 µg/mL | 372 ± 27 Karmen units | 21.3 ± 4.0 µg/mL
